Measured values as given in ChEMBL document CHEMBL3507680, “University of Dundee, Gates Library screen for HepG2 cell viability”.

Assay: Human HepG2 cell viability assay in 384 well format
Format: toxicity, cell-based
Set-up: dose 125 nL, time 70.5 hour; concentration not given beside the values
Conditions: HepG2 cells, read-out: Inhibition

Structure (SMILES)	cytotoxicity at 70.5 h [%]
O=C(NCCCn1nc2ccccn2c1=O)NCc1ccccc1	-0.996
Cc1csc(N2CCCN(C(=O)CCNc3ncccn3)CC2)n1	-0.695
CCCS(=O)(=O)NC(C)C(=O)NCc1ccc(N2CCN(C)CC2)nc1 (configuration not stated)	-2.17
Cc1ccn2ncc(C(=O)N3CCCC(n4cccn4)C3)c2n1 (configuration not stated)	-0.891
COCCOc1cc(C)ccc1NC(=O)N(C)Cc1cnn(C)c1	-13.2
COc1ccccc1CC(=O)N1CCCC1Cn1nc(C)cc1C (configuration not stated)	-2.44
CC(C)C(=O)NCc1ccc(N2CCCC2)nc1	-3.37
Cc1cccc(C)c1OCC(=O)N1CCOCC1c1ncon1 (configuration not stated)	-2.55
Cc1ccc(OCCC(=O)N2CCOCC2c2ncon2)cc1C (configuration not stated)	-7.26
CC(C)c1nc(CN2CCCC(Cn3cncn3)C2)cs1 (configuration not stated)	29.1
Cn1cc(C2CCCN2CCC(=O)N2CCc3sccc3C2)cn1 (configuration not stated)	-4.52
C1CCCN(CC2CCCN(Cc3noc(C4CC4)n3)C2)CC1 (configuration not stated)	0.15
C1CCCN(C2CCCN(Cc3noc(C4CC4)n3)C2)CC1 (configuration not stated)	-1.66
O=C(CCN1CCCC1c1cccc(F)c1)N1CCc2sccc2C1 (configuration not stated)	0.336
Cc1ccccc1OCC(=O)N1CCN(C2CCOC2=O)CC1 (configuration not stated)	0.726
CCn1nc2c(cc1=O)CN(Cc1coc(-c3ccccc3)n1)CC2	-3.27
COCCOc1ncccc1C(=O)N1CCCCC1c1nccs1 (configuration not stated)	-3.02
COCCOc1cccc(C(=O)N2CCCCC2c2nccs2)c1 (configuration not stated)	-3.68
O=C(NCCNc1ncccn1)N1CCCC1	-0.644
O=C1OCCC1N1CCN(C(=O)Cc2ccccc2Cl)CC1 (configuration not stated)	-0.257
O=C(NCCOCC(F)(F)F)c1ccc(-c2ccccc2)[nH]c1=O	-7.3
Cc1cc(C2CCCN2CCC(=O)N2CCc3sccc3C2)no1 (configuration not stated)	1.59
COCc1ccc(CNCc2c(C)nn(C)c2N(C)C)cc1	24.1
Cn1nc2c(cc1=O)CN(Cc1coc(-c3ccccc3)n1)CC2	0.822

Structure (SMILES)	cytotoxicity at 70.5 h [%]
Cc1csc(C2CCCCN2C(=O)c2cc(Cl)c[nH]2)n1 (configuration not stated)	-0.326
CC(C)(C)OC(=O)NCCNC(=O)c1ccc(-c2ccco2)[nH]c1=O	-0.98
O=C(c1ccc2c(c1)OCCCO2)N1CCCC(n2cccn2)C1 (configuration not stated)	0.26
CCc1nc2n(n1)CC(NCc1nnc(C(C)C)o1)CC2 (configuration not stated)	19.3
CC(NC(=O)CCOc1cccc(F)c1)c1nnc2n1CCC2 (configuration not stated)	-2.58
CC(NC(=O)Nc1cccnc1N1CCCC1)c1ccncc1 (configuration not stated)	0.728
N#Cc1cccc(CNC(=O)Nc2cccnc2N2CCCC2)c1	-1.72
COc1ncccc1CNC(=O)Nc1cccnc1N1CCCC1	5.6
O=C(NCc1cccnc1-n1cncn1)c1ccc2c(c1)CCO2	-1.03
Cc1cnn(CC2CN(Cc3nc(-c4cccnc4)no3)CCO2)c1 (configuration not stated)	-0.171
CC(C)c1nc2n(n1)CC(NCc1nnc(C3CC3)o1)CC2 (configuration not stated)	0.876
CCc1nnc(CNC2CCc3nc(C(C)C)nn3C2)o1 (configuration not stated)	0.155
OCCN1CCN(CC(O)c2ccc(OC(F)(F)F)cc2)CC1 (configuration not stated)	-2.1
Cc1nn(C)c(C)c1C1CCCN1CC(=O)Nc1ccc(Cl)cn1 (configuration not stated)	2.19
Cc1cnn(CCC(=O)N2CCCC(c3nc(C)c(C)s3)C2)c1 (configuration not stated)	1.92
Cc1cc(C)n(CCC(=O)N2CCCC(c3cc(C(N)=O)[nH]n3)C2)n1 (configuration not stated)	29.3
Cc1ccccc1CCC(=O)N1CCCC(c2cc(C(N)=O)[nH]n2)C1 (configuration not stated)	6.15
COCCOc1ccccc1C(=O)N1CCCC(c2cc(C)[nH]n2)C1 (configuration not stated)	0.71
CC(NC(=O)Nc1cccnc1N1CCCC1)c1ccn(C)c1 (configuration not stated)	25
CCCC(=O)N1CCN(CC(O)COCC)CC1 (configuration not stated)	1.27
Cc1ccc(N2CCCC(NCc3ccc4c(c3)CCO4)C2)nn1 (configuration not stated)	4.47
Cc1cnn(CCC(=O)N2CCCC(c3ccn[nH]3)C2)c1 (configuration not stated)	-1.8
CC(=O)NCCNC(=O)CN1CCCC1c1c(C)nn(C)c1C (configuration not stated)	25.7
CCOCC(O)CN1CCN(C(=O)C2CCC2)CC1 (configuration not stated)	-3.91

Structure (SMILES)	cytotoxicity at 70.5 h [%]
CN(C)c1ncccc1CNC(=O)NCCN(C)C1CCCC1	-0.0535
CN(Cc1coc(-c2ccccc2)n1)C1CCCN(c2cccnn2)C1 (configuration not stated)	-7.45
CC(C)n1cnnc1C1CCCN(C(=O)COCc2ccccc2)C1 (configuration not stated)	-5.17
Cc1nc(C)n(C2CCCN(C(=O)Cc3csc(C(C)C)n3)C2)n1 (configuration not stated)	-3.36
CN1N=C(C(=O)N2CCCC(n3ccnc3)C2)CCC1=O (configuration not stated)	-7.88
C1CC(c2noc(C3CC3)n2)N(Cc2nc(C3CC3)no2)C1 (configuration not stated)	-10.7
CC(C)c1nccn1C1CCCN(C(=O)C2=NN(C)C(=O)CC2)C1 (configuration not stated)	-10.1
COc1cccc(CC(=O)N2CCCC(c3nncn3C)C2)c1 (configuration not stated)	-12.3
Cc1cc(NC(=O)NCc2cccnc2OC(C)C)no1	-0.0866
CS(=O)(=O)NCC1CCCN(C(=O)c2cccc(F)c2)C1 (configuration not stated)	-6.44
CC(Cn1cccn1)NC(=O)N1CCCN(Cc2cccs2)CC1 (configuration not stated)	-5.76
CC(NCc1ccc(F)cc1)c1ccc(OCC(=O)NC2CC2)cc1 (configuration not stated)	25.6
COc1ccc(CN(C)Cc2nc3c(cnn3C)c(=O)[nH]2)cc1OC	-6.1
Cc1cc(NC(=O)NCc2ccccn2)n(C)n1	-6.19
CC(Cc1c(F)cccc1F)NC(=O)Nc1cnn(CC(N)=O)c1 (configuration not stated)	-3.56
O=C(Cc1ccccc1)N1CCN(Cc2noc(C3CC3)n2)CC1	-1.85
Cc1nnc2n1CCN(C(=O)COCCOc1ccccc1)C2	-1.96
Cc1cnn(CC(C)NCc2ccc(OCc3ccncc3)cc2)c1 (configuration not stated)	30.2
CCN1CCC(NC(=O)CN2CCCC2Cn2cncn2)CC1 (configuration not stated)	-2.95
Cc1cnn(CC2CCCCN2CC(=O)Nc2c(C)n[nH]c2C)c1 (configuration not stated)	-5.21
COc1ccc(C(=O)N2CCC(Nc3ccc(C)nn3)CC2)c(F)c1	-6.97
c1ccc(-n2cc(CN3CCCC(Cn4cncn4)C3)nn2)cc1 (configuration not stated)	-7.1
Cc1cc(C(=O)N2CCc3nnc(N)cc3C2)c(C)n1C1CC1	-12.1
O=C(O)c1cc(S(=O)(=O)Nc2ccc(Cl)cc2)cc2c1OCCO2	-10.1

Structure (SMILES)	cytotoxicity at 70.5 h [%]
Cc1nc(C)n(CC2CN(c3ncnc4[nH]ccc34)CCO2)n1 (configuration not stated)	1.75
Cc1ncccc1CNCC1CCN(CC(O)c2ccccc2)CC1 (configuration not stated)	-1.3
Cc1nc(C2CCCN(C(=O)c3ccco3)C2)no1 (configuration not stated)	24
Cc1cc(C(=O)N2CCc3nnc(N(C)C)cc3C2)c(C)n1C1CC1	-3.63
CC(C)(C)OC(=O)N1CCN(C(=O)c2sccc2C2CC2)CC1	-10
CSc1ccsc1C(=O)N1CCN(CC(C)(C)O)CC1	-0.902
Cc1cnn(CC(C)NCc2csc(-c3cnn(C)c3)n2)c1 (configuration not stated)	51.9
COC(=O)C(c1cc(F)ccc1F)N(C)C(=O)c1csnn1 (configuration not stated)	7.84
COC(=O)N1CCCN(C(=O)NCc2ccc(Cl)s2)CC1	10.1
CCn1cnnc1CNC(=O)c1cc(Cl)ccc1OC	-4.87
CCc1cccc(N2CCC(NC(=O)c3ccc(=O)[nH]n3)CC2)c1	-0.843
COCc1nc(C(=O)N2CCCC2c2ccccc2C)cs1 (configuration not stated)	-1.48
Cc1ccoc1C(=O)NC1CCN(Cc2cccc3c2OCCO3)CC1	6.48
COc1ccc(Br)c(C(=O)N2CCC(c3n[nH]c(C4CC4)n3)CC2)c1	3.76
O=C(CCCNc1ncccn1)N1CCCC(n2cccn2)C1 (configuration not stated)	34.1
COCCN1CCC(CNC(=O)C2(c3cccc(C)c3)CC2)CC1	-4.42
CCC(=O)NC1CCN(c2cccc(CC)c2)CC1	38.9
Cc1cnn(CC(C)NCc2csc(-c3ccco3)n2)c1 (configuration not stated)	4.15
COC(=O)C(c1cc(F)ccc1F)N(C)C(=O)c1cccnc1O (configuration not stated)	0.116
Cc1cc(C)n(CC2CCCN2C(=O)c2ccc(C(N)=O)cn2)n1 (configuration not stated)	-1.95
Cc1cc(C(=O)N2CCN(C(=O)Cc3ccccn3)CC2)c(C)s1	0.259
Cc1nn(C)c(C)c1CNCc1ccnc(N2CCOCC2)c1	31.5
CC(=O)N1CCCN(C(=O)NCCc2cc(Cl)cc(Cl)c2)CC1	-6.77
COCc1nc(C(=O)N2CCCC2c2noc(C(C)C)n2)cs1 (configuration not stated)	-0.699

Structure (SMILES)	cytotoxicity at 70.5 h [%]
CC(=O)N1CCCN(C(=O)NCCc2ccc(Cl)s2)CC1	-1.97
CCc1noc(C(C)N2CCC(C(=O)Nc3cnn(CC)c3)CC2)n1 (configuration not stated)	41.4
O=C(Cc1ccccn1)N1CCN(C(=O)c2cccc3[nH]ncc23)CC1	1.92
O=C(NS(=O)(=O)c1ccc2c(c1)OCCO2)c1ccc(Br)cc1F	5.66
Cc1ccc(N2CCCC(NCC(=O)Nc3cc(C)no3)C2)nn1 (configuration not stated)	25.6
CCCc1nc(CN2CCOC(Cn3cncn3)C2)no1 (configuration not stated)	18.1
CCc1n[nH]c(C2CN(C(=O)Cn3ccccc3=O)CCO2)n1 (configuration not stated)	21.1
CCN(CCNC(=O)c1ccccc1OCCOC)C1CC1	54.8
O=C(c1cccc(CNCC2CNc3ccnn3C2)c1)N1CCCC1 (configuration not stated)	16.7
CCOc1cc(/C=C/c2ncc(C(=O)O)s2)ccc1O	0.103
Cc1cnn(CCC(=O)N2CCCN(c3ncccc3C#N)CC2)c1	0.758
CCCNC(=O)Cn1cc(-c2ccccc2)cn1	1.15
CNC(=O)NC(=O)Cn1cc(-c2ccccc2)cn1	-2.21
Cc1nc(C)n(CC2CCCCN2CCC(=O)Nc2cc(C)on2)n1 (configuration not stated)	-3.96
Cc1ccccc1Cc1cnc(NC(=O)C2CNC(=O)N2)s1 (configuration not stated)	2.49
Cc1ccc(Cc2cnc(NC(=O)C3CNC(=O)N3)s2)cc1F (configuration not stated)	-0.116
Cc1cc(NC(=O)CCN2CCCC2Cn2cncn2)no1 (configuration not stated)	1.41
CC(C)Oc1ccccc1CNC(=O)N1CCC(n2cncn2)CC1	26.9
Cc1cnn(CCC(=O)N2CCN(c3ncccc3Cl)CC2)c1	-0.781
CC(C)c1nc(C(=O)N2CCCC(n3cncn3)C2)c[nH]1 (configuration not stated)	-2.47
COc1ccc(CCNCc2c(C)nn(C)c2N(C)C)cc1OC	-1.22
